Results taken from PubChem BioAssay AID250 (DTP/NCI, 2004).
“And” between values parts separate entries of the source, which are not always exact repeats. Identical values can stand only once. Toxic doses and inconclusive results are not listed.

Tested on: BDF1 mice, L1210 leukemia sc, survival T/C
Assay: NCI In Vivo Anticancer Drug Screen. Data for tumor model L1210 Leukemia (subcutaneous) in B6D2F1 (BDF1) mice
Details: higher = longer survival
Procedure: The antitumor activity of compounds was measured in mice bearing transplantable tumors. Survival or tumor size were measured and the results are expressed as the measurement made in the treated group (T) divided by the measurement made in the vehicle treated control group (C). The tumor model used in this assay is L1210 Leukemia (subcutaneous) in B6D2F1 (BDF1) mice

[1] = endpoint: median survival time, dose: 39.0 mg/kg/injection, schedule: Q01DX Z (sc), vehicle: methylcellulose (MC)
[2] = endpoint: median survival time, dose: 65.0 mg/kg/injection, schedule: Q01DX Z (sc), vehicle: methylcellulose (MC)
[3] = endpoint: median survival time, dose: 108.0 mg/kg/injection, schedule: Q01DX Z (sc), vehicle: methylcellulose (MC)
[4] = endpoint: median survival time, dose: 180.0 mg/kg/injection, schedule: Q01DX Z (sc), vehicle: methylcellulose (MC)
[5] = endpoint: median survival time, dose: 300.0 mg/kg/injection, schedule: Q01DX Z (sc), vehicle: methylcellulose (MC)
[6] = endpoint: median survival time, dose: 500.0 mg/kg/injection, schedule: Q01DX Z (sc), vehicle: methylcellulose (MC)
[7] = endpoint: median survival time, dose: 23.0 mg/kg/injection, schedule: Q01DX Z (sc), vehicle: methylcellulose (MC)
[8] = endpoint: median survival time, dose: 14.0 mg/kg/injection, schedule: Q01DX Z (sc), vehicle: saline
[9] = endpoint: median survival time, dose: 23.0 mg/kg/injection, schedule: Q01DX Z (sc), vehicle: saline
[10] = endpoint: median survival time, dose: 39.0 mg/kg/injection, schedule: Q01DX Z (sc), vehicle: saline
[11] = endpoint: median survival time, dose: 65.0 mg/kg/injection, schedule: Q01DX Z (sc), vehicle: saline

CCC1=C(c2ccc(OC)cc2)CCC(C(=O)O)C1C (centres undefined)
T/C (endpoint: median survival time, dose: 14.0 mg/kg/injection, schedule: Q01DX Z (sc), vehicle: steriod suspending solution): 105 % of control
T/C (endpoint: median survival time, dose: 23.0 mg/kg/injection, schedule: Q01DX Z (sc), vehicle: steriod suspending solution): 100 % of control
T/C (endpoint: median survival time, dose: 39.0 mg/kg/injection, schedule: Q01DX Z (sc), vehicle: steriod suspending solution): 105 % of control
T/C (endpoint: median survival time, dose: 65.0 mg/kg/injection, schedule: Q01DX Z (sc), vehicle: steriod suspending solution): 100 % of control
T/C (endpoint: median survival time, dose: 108.0 mg/kg/injection, schedule: Q01DX Z (sc), vehicle: steriod suspending solution): 100 % of control and 111 % of control
T/C (endpoint: median survival time, dose: 180.0 mg/kg/injection, schedule: Q01DX Z (sc), vehicle: steriod suspending solution): 100 % of control and 105 % of control
T/C (endpoint: median survival time, dose: 300.0 mg/kg/injection, schedule: Q01DX Z (sc), vehicle: steriod suspending solution): 100 % of control and 111 % of control
T/C (endpoint: median survival time, dose: 500.0 mg/kg/injection, schedule: Q01DX Z (sc), vehicle: steriod suspending solution): 111 % of control
T/C (endpoint: median survival time, dose: 833.0 mg/kg/injection, schedule: Q01DX Z (sc), vehicle: steriod suspending solution): 100 % of control

CS(=O)(=O)OCC(=O)NCCNC(=O)COS(C)(=O)=O
T/C [1]: 105 % of control
T/C [2]: 105 % of control
T/C [3]: 110 % of control
T/C [4]: 110 % of control
T/C [5]: 115 % of control
T/C [6]: 100 % of control

O=C1NC(O)CCN1C1OC(CO)C(O)C1O (centres undefined)
T/C (endpoint: median survival time, dose: 125.0 mg/kg/injection, schedule: Q06HX018 (sc), vehicle: saline): 102 % of control
T/C (endpoint: median survival time, dose: 125.0 mg/kg/injection, schedule: Q## X018 (sc), vehicle: saline): 102 % of control
T/C (endpoint: median survival time, dose: 250.0 mg/kg/injection, schedule: Q06HX018 (sc), vehicle: saline): 102 % of control
T/C (endpoint: median survival time, dose: 250.0 mg/kg/injection, schedule: Q## X018 (sc), vehicle: saline): 102 % of control
T/C (endpoint: median survival time, dose: 500.0 mg/kg/injection, schedule: Q06HX018 (sc), vehicle: saline): 108 % of control
T/C (endpoint: median survival time, dose: 500.0 mg/kg/injection, schedule: Q## X018 (sc), vehicle: saline): 108 % of control
T/C (endpoint: median survival time, dose: 1000.0 mg/kg/injection, schedule: Q06HX018 (sc), vehicle: saline): 107 % of control
T/C (endpoint: median survival time, dose: 1000.0 mg/kg/injection, schedule: Q## X018 (sc), vehicle: saline): 107 % of control

Nc1cc(=O)[nH][nH]1
T/C (endpoint: median survival time, dose: 300.0 mg/kg/injection, schedule: Q01DX Z (sc), vehicle: saline): 100 % of control
T/C (endpoint: median survival time, dose: 500.0 mg/kg/injection, schedule: Q01DX Z (sc), vehicle: saline): 105 % of control
T/C (endpoint: median survival time, dose: 833.0 mg/kg/injection, schedule: Q01DX Z (sc), vehicle: saline): 90 % of control
T/C (endpoint: median survival time, dose: 1388.0 mg/kg/injection, schedule: Q01DX Z (sc), vehicle: saline): 90 % of control

C[C@]12C=CC(=O)C=C1CC[C@@H]1[C@@H]2CC[C@]2(C)OC(=O)CC[C@@H]12
T/C [7]: 100 % of control
T/C [1]: 100 % of control
T/C [2]: 100 % of control
T/C [4]: 100 % of control
T/C [5]: 100 % of control
T/C [6]: 100 % of control

CCCCCCCCCCCCCCCCNC(=S)N/N=C/c1ccccc1OC
T/C (endpoint: median survival time, dose: 78.0 mg/kg/injection, schedule: Q01DX Z (sc), vehicle: water): 100 % of control
T/C (endpoint: median survival time, dose: 130.0 mg/kg/injection, schedule: Q01DX Z (sc), vehicle: water): 105 % of control
T/C (endpoint: median survival time, dose: 216.0 mg/kg/injection, schedule: Q01DX Z (sc), vehicle: water): 111 % of control
T/C (endpoint: median survival time, dose: 360.0 mg/kg/injection, schedule: Q01DX Z (sc), vehicle: water): 105 % of control
T/C (endpoint: median survival time, dose: 600.0 mg/kg/injection, schedule: Q01DX Z (sc), vehicle: water): 100 % of control

Cc1cccc2c(Nc3ccc(NS(C)(=O)=O)cc3)c3ccccc3nc12
T/C (endpoint: mean survival time, dose: 10.0 mg/kg/injection, schedule: Q01DX009 (ip), vehicle: saline): 103 % of control
T/C (endpoint: mean survival time, dose: 20.0 mg/kg/injection, schedule: Q01DX009 (ip), vehicle: saline): 107 % of control
T/C (endpoint: mean survival time, dose: 40.0 mg/kg/injection, schedule: Q01DX009 (ip), vehicle: saline): 106 % of control
T/C (endpoint: mean survival time, dose: 80.0 mg/kg/injection, schedule: Q01DX009 (ip), vehicle: saline): 100 % of control
T/C (endpoint: median survival time, dose: 10.0 mg/kg/injection, schedule: Q01DX009 (ip), vehicle: saline with Tween-80): 106 % of control
T/C (endpoint: median survival time, dose: 20.0 mg/kg/injection, schedule: Q01DX009 (ip), vehicle: saline with Tween-80): 112 % of control

C[n+]1c2ccccc2nc2c(N)cc(N)cc21
T/C (endpoint: median survival time, dose: 1.8 mg/kg/injection, schedule: Q01DX Z (sc), vehicle: saline): 100 % of control
T/C (endpoint: median survival time, dose: 3.0 mg/kg/injection, schedule: Q01DX Z (sc), vehicle: saline): 100 % of control
T/C (endpoint: median survival time, dose: 5.0 mg/kg/injection, schedule: Q01DX Z (sc), vehicle: saline): 100 % of control
T/C (endpoint: median survival time, dose: 8.4 mg/kg/injection, schedule: Q01DX Z (sc), vehicle: saline): 100 % of control
T/C [8]: 100 % of control
T/C [7]: 105 % of control
T/C [9]: 111 % of control
T/C [1]: 105 % of control
T/C [10]: 111 % of control
T/C [2]: 105 % of control

C[C@]12CCC(=O)C=C1CC[C@H]1[C@@H]3CC[C@](O)(C(=O)CO)[C@@]3(C)C[C@H](O)[C@@]12F
T/C [1]: 100 % of control
T/C [2]: 100 % of control
T/C [3]: 100 % of control
T/C [4]: 100 % of control
T/C [5]: 100 % of control and 118 % of control
T/C (endpoint: median survival time, dose: 833.0 mg/kg/injection, schedule: Q01DX Z (sc), vehicle: methylcellulose (MC)): 112 % of control

CC[C@H](c1ccc(O)cc1)[C@@H](CC)c1ccc(O)cc1
T/C [1]: 100 % of control
T/C [2]: 100 % of control
T/C [3]: 100 % of control

Cc1c(CNc2ccc(C(=O)NC(CC(=O)O)C(=O)O)cc2)ccc2nc(N)nc(N)c12 (centres undefined)
T/C (endpoint: median survival time, dose: 0.05 mg/kg/injection, schedule: Q01DX017 (sc), vehicle: sodium bicarbonate): 116 % of control
T/C (endpoint: median survival time, dose: 1.8 mg/kg/injection, schedule: Q04DX005 (sc), vehicle: sodium bicarbonate): 229 % of control
T/C (endpoint: median survival time, dose: 3.0 mg/kg/injection, schedule: Q04DX005 (sc), vehicle: sodium bicarbonate): 233 % of control
T/C (endpoint: median survival time, dose: 5.0 mg/kg/injection, schedule: Q04DX005 (sc), vehicle: sodium bicarbonate): 170 % of control
T/C (endpoint: median survival time, dose: 8.4 mg/kg/injection, schedule: Q04DX005 (sc), vehicle: sodium bicarbonate): 150 % of control
T/C (endpoint: median survival time, dose: 14.0 mg/kg/injection, schedule: Q01DX017 (sc), vehicle: sodium bicarbonate): 95 % of control
T/C (endpoint: median survival time, dose: 14.0 mg/kg/injection, schedule: Q04DX005 (sc), vehicle: sodium bicarbonate): 116 % of control
T/C (endpoint: median survival time, dose: 23.0 mg/kg/injection, schedule: Q01DX017 (sc), vehicle: sodium bicarbonate): 87 % of control

N[C@@H](Cc1ccc(N(CCCl)CCCl)cc1)C(=O)O
T/C (endpoint: median survival time, dose: 0.65 mg/kg/injection, schedule: Q01DX Z (sc), vehicle: water): 100 % of control
T/C (endpoint: median survival time, dose: 1.09 mg/kg/injection, schedule: Q01DX Z (sc), vehicle: water): 100 % of control
T/C (endpoint: median survival time, dose: 1.81 mg/kg/injection, schedule: Q01DX Z (sc), vehicle: water): 95 % of control
T/C (endpoint: median survival time, dose: 3.02 mg/kg/injection, schedule: Q01DX Z (sc), vehicle: water): 100 % of control
T/C (endpoint: median survival time, dose: 5.04 mg/kg/injection, schedule: Q01DX Z (sc), vehicle: water): 104 % of control
T/C (endpoint: median survival time, dose: 8.4 mg/kg/injection, schedule: Q01DX Z (sc), vehicle: water): 100 % of control
T/C [8]: 114 % of control
T/C (endpoint: median survival time, dose: 14.0 mg/kg/injection, schedule: Q01DX Z (sc), vehicle: water): 109 % of control
T/C [9]: 123 % of control
T/C (endpoint: median survival time, dose: 23.3 mg/kg/injection, schedule: Q01DX Z (sc), vehicle: water): 109 % of control
T/C (endpoint: median survival time, dose: 38.9 mg/kg/injection, schedule: Q01DX Z (sc), vehicle: water): 118 % of control
T/C [10]: 104 % of control
T/C [11]: 104 % of control

S=P(N1CCOCC1)(N1CC1)N1CC1
T/C [8]: 96 % of control and 110 % of control (2×)
T/C (endpoint: median survival time, dose: 23.0 mg/kg/injection, schedule: Q## X Z (sc), vehicle: saline): 120 % of control
T/C (endpoint: median survival time, dose: 39.0 mg/kg/injection, schedule: Q01DX001 (sc), vehicle: saline): 120 % of control
T/C [10]: 150 % of control and 180 % of control
T/C (endpoint: median survival time, dose: 65.0 mg/kg/injection, schedule: Q01DX001 (sc), vehicle: saline): 150 % of control
T/C [11]: 150 % of control
T/C (endpoint: median survival time, dose: 65.0 mg/kg/injection, schedule: Q## X Z (sc), vehicle: saline): 170 % of control
T/C (endpoint: median survival time, dose: 108.0 mg/kg/injection, schedule: Q01DX Z (sc), vehicle: saline): 104 % of control and 120 % of control
T/C (endpoint: median survival time, dose: 180.0 mg/kg/injection, schedule: Q01DX Z (sc), vehicle: saline): 104 % of control and 120 % of control
T/C (endpoint: median survival time, dose: 500.0 mg/kg/injection, schedule: Q01DX001 (sc), vehicle: saline): 115 % of control
